Source: patent US10786475B2, “Method for preventing, treating, or improving fatty liver by administering effective amounts of azelaic acid to a subject” (Korea University Research and Business Foundation, priority 2018, dated 2020)

Assays:
3T3-L1 adipose cells = assay: MTT cytotoxicity assay in 3T3-L1 adipose cells; type: cell-based, mouse; details: 0 to 500 μM AzA, compared with control group
Method: The cytotoxicity test for 3T3-L1 adipose cells was performed by a tetrazolium-based colorimetric (MTT) method. The MTT assay is a method for evaluating cytotoxicity by measuring absorbance at a suitable wavelength (usually at 500 to 600 nm) based on a metabolic process, in which a dehydrogenase in mitochondria of intact cells reduces a yellow water-soluble tetrazolium salt [3-(4,5-dimethylthiazol-2-yl)-2-5-diphenyltetrazolium bromide] (MTT) into a water-insoluble dark violet MTT formazan crystal.

[1] = system: Hepa1c1c-7 cells stimulated by LPS; assay: GPCR 10-pathway reporter assay in LPS-induced Hepa1c1c-7 cells; type: cell-based, mouse; details: 100 ng/mL LPS 1 hour, then 50 μM AzA 6 hours
Method: Mouse hepatocytes, i.e., Hepa1c1c-7 cells were seeded on a 96 well-plate at 1×10^4 cells/well and cultured for 24 hours, and transfected with a construct including a transcription factor promoter and a luciferase for 8 hours. The experiment was performed on two groups, i.e., a group with inflammation in hepatocytes caused by LPS and a group not being treated with LPS. In the non-treated control, 50 μM of AzA was treated for 6 hours, and in the experimental group, inflammation was induced by treating 100 ng/mL of LPS, the inflammation-inducing material, for 1 hour, and then 50 μM of AzA was treated for 6 hours. As a result, downstream pathway, which was activated by an AzA, was confirmed. To confirm a mechanism of an anti-inflammatory effect of an AzA, 10 transcription factors for signal transduction of GPCR were analyzed. […] Based on the Olfr544-cAMP-CREB signal transduction process of an AzA, the change of a complicated downstream signal transduction pathway system in response to GPCR activation and inhibition was examined using 10 types of transcription factors through a GPCR 10-pathway reporter assay. A GPCR 10-signal transduction pathway measurement is a method for assessing a representative signal pathway of GPCR using a reporter gene assay method, and the change of a complicated downstream signal transduction pathway system in response to the activation and inhibition of GPCR can be assessed using 10 types of transcription factors. A GPCR Signaling 10-pathway Reporter Array (QIAGEN, Netherlands) used in this example includes a transcription factor inducing downstream signal transduction and a firefly luciferase construct in each experimental group, and is based on a principle, in which luciferase activity is measured by continuously expressing a Renilla luciferase construct. The 10 types of transcription factors are as follows: ATF2/ATF3/ATF4, CREB, ELK1/SRF, FOS/JUN, MEF2, GLI, FOXO, STAT3, NFAT, and NFκB. In this example, the luciferase activity was measured using a dual luciferase assay kit (Promega, USA) and Victor™ X2 (PerkinElmer, CA, USA).

LPS mouse = assay: LPS-induced inflammation in C57BL/6J male mouse, liver gene expression; type: in vivo; details: AzA 100 mg/kg, LPS 10 mg/kg intraperitoneally, liver 16 hours after LPS
Method: Eight-week-old C57BL/6J male […] were purchased from Samtako (Gyeonggi-do, Korea). All experiments were carried out according to protocols approved by the Animal Experiment Committee of Korea University (Protocol No. KUIACUC-20090420-4). Mice were maintained under a 12-hour photoperiod at 21 to 25° C. and relative humidity of 50% to 60%. In normal groups and LPS-induced groups, 100 μL of deionized water was administered to each mouse using an oral sonde for 4 days, and 100 μL of LPS was intraperitoneally injected at a dose of 10 mg/kg one hour after the administration with deionized water on the last day, Day 4. In a group into which LPS was administered after the AzA administration, each mouse was orally administered 100 μL of AzA at a dose of 100 mg/kg for 4 days, and intraperitoneally injected with 100 μL of 10 mg/kg LPS one hour after the AzA administration on the last day, Day 4. Sixteen hours after the LPS intraperitoneal injection, the mice were anesthetized with avertin, and dissected to extract liver tissue. The liver tissue was obtained, immediately stored in liquid nitrogen, and then stored at −80° C.
1 μg of RNA extracted from the stored liver tissue was used to synthesize cDNA using a ReverTra Ace® qPCR RT kit (TOYOBO, Osaka, Japan). […]

Hepa1c1c-7 cells = assay: MTT cytotoxicity assay in Hepa1c1c-7 cells; type: cell-based, mouse; details: 0 to 500 μM AzA, 24 hours, compared with control group

O=C(O)CCCCCCCC(=O)O [AzA, nonanedioic acid]
cytotoxicity (MTT assay) (3T3-L1 adipose cells): toxicity was not exhibited at every concentration
CREB transcription factor activity (cAMP/PKA pathway) [1]: significant activities
ELK1/SRF transcription factor activity (MAPK/ERK pathway) [1]: significant activities
STAT3 transcription factor activity (IL-6 signaling pathway) [1]: significant activities
gene expression levels of inflammatory cytokines IL-6 and TNF-α in liver tissue (LPS mouse): tendency of reduction in inflammatory responses
cytotoxicity (MTT assay) (Hepa1c1c-7 cells): toxicity was not exhibited at every concentration
